Source: US9833497B2, “Human originated EGF domain proteins and use of the same” (CHENGDU SOURCEBIO LIMITED-LIABILITY COMPANY, priority 2013, dated 2017)

Assays:
Type in all cases: cell-based
E. coli DH5α = assay: Antibacterial activity: MIC and growth curve against E. coli DH5α in 96-well plate; conditions: minimal inhibitory concentration against E. coli DH5α; 96-well plate, 5×10^5 CFU/mL, 37° C., judged after 8 h
How it was run: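 Log-phase bacteria (OD600 ~0.5) resuspended in LB at 5×10^5 CFU/mL, exposed to recombinant protein at 50, 25, 12.5 μg/mL final in triplicate, 37 °C shaking at 175 rpm. OD600 read every 30 min; MIC is lowest concentration showing no growth.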

E. coli BL21 = assay: MIC against Gram-negative bacteria: E. coli BL21; conditions: for MIC (μg/mL) E. coli BL21 / MIC E. coli BL21: 5×10^5 CFU/mL; for MIC E. coli BL21: two-fold serial dilution; for MIC (μg/mL) E. coli BL21 / MIC: E. coli BL21
How it was run: (§1)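 Two-fold serial dilutions of each purified human EGF domain protein, three replicate wells per level, were combined with bacteria at a final 5×10^5 CFU/mL in LB. Cultures were shaken at 175 rpm, 37° C. The MIC was taken as the minimum concentration preventing growth.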

Pseudomonas aeruginosa = assay: MIC against Gram-negative bacteria: Pseudomonas aeruginosa; conditions: for MIC (μg/mL) P. aeruginosa / MIC P. aeruginosa: 5×10^5 CFU/mL; for MIC P. aeruginosa: two-fold serial dilution
How it was run: as §1

Klebsiella pneumonia = assay: MIC against Gram-negative bacteria: Klebsiella pneumonia; conditions: for MIC (μg/mL) K. pneumonia / MIC K. pneumonia: 5×10^5 CFU/mL; for MIC K. pneumonia: two-fold serial dilution
How it was run: as §1

Enterobacter cloacae = assay: MIC against Gram-negative bacteria: Enterobacter cloacae; conditions: for MIC (μg/mL) E. cloacae / MIC E. cloacae: 5×10^5 CFU/mL; for MIC E. cloacae: two-fold serial dilution
How it was run: as §1

Aeromonas hydrophila = assay: MIC against Gram-negative bacteria: Aeromonas hydrophila; conditions: for MIC (μg/mL) A. hydrophila / MIC A. hydrophila: 5×10^5 CFU/mL; for MIC A. hydrophila: two-fold serial dilution
How it was run: as §1

Citrobacter diversus = assay: MIC against Gram-negative bacteria: Citrobacter diversus; conditions: for MIC (μg/mL) C. diversus / MIC C. diversus: 5×10^5 CFU/mL; for MIC C. diversus: two-fold serial dilution
How it was run: as §1

Moraxella catarrhalis = assay: MIC against Gram-negative bacteria: Moraxella catarrhalis; conditions: for MIC (μg/mL) M. catarrhalis / MIC M. catarrhalis: 5×10^5 CFU/mL; for MIC M. catarrhalis: two-fold serial dilution
How it was run: as §1

Proteus mirabilis = assay: MIC against Gram-negative bacteria: Proteus mirabilis; conditions: for MIC (μg/mL) P. mirabilis / MIC P. mirabilis: 5×10^5 CFU/mL; for MIC P. mirabilis: two-fold serial dilution
How it was run: as §1

Proteus vulgaris = assay: MIC against Gram-negative bacteria: Proteus vulgaris; conditions: for MIC (μg/mL) P. vulgaris / MIC P. vulgaris: 5×10^5 CFU/mL; for MIC P. vulgaris: two-fold serial dilution
How it was run: as §1

Serratia marcescens = assay: MIC against Gram-negative bacteria: Serratia marcescens; conditions: for MIC (μg/mL) S. marcescens / MIC S. marcescens: 5×10^5 CFU/mL; for MIC S. marcescens: two-fold serial dilution
How it was run: as §1

[1] = P. aeruginosa, 10 h cultivation at 37° C.
[2] = K. pneumonia, 10 h cultivation at 37° C.
[3] = E. cloacae, 10 h cultivation at 37° C.
[4] = A. hydrophila, 10 h cultivation at 37° C.
[5] = C. diversus, 10 h cultivation at 37° C.
[6] = M. catarrhalis, 10 h cultivation at 37° C.
[7] = P. mirabilis, 10 h cultivation at 37° C.
[8] = P. vulgaris, 10 h cultivation at 37° C.
[9] = S. marcescens, 10 h cultivation at 37° C.

PRT747 (DIDECKDPDACSQICVNYKGYFKCECYPGYEMDLLTKNCK; listed as Homo sapiens)
MIC (E. coli DH5α): 50 µg/mL | MIC (μg/mL) E. coli BL21 (E. coli BL21; 10 h cultivation at 37° C.): 50 µg/mL | MIC (μg/mL) P. aeruginosa (Pseudomonas aeruginosa; [1]): 12.5 µg/mL | MIC (μg/mL) K. pneumonia (Klebsiella pneumonia; [2]): 12.5 µg/mL | MIC (μg/mL) E. cloacae (Enterobacter cloacae; [3]): 12.5 µg/mL | MIC (μg/mL) A. hydrophila (Aeromonas hydrophila; [4]): 12.5 µg/mL | MIC (μg/mL) C. diversus (Citrobacter diversus; [5]): 50 µg/mL | MIC (μg/mL) M. catarrhalis (Moraxella catarrhalis; [6]): 12.5 µg/mL | MIC (μg/mL) P. mirabilis (Proteus mirabilis; [7]): 50 µg/mL | MIC (μg/mL) P. vulgaris (Proteus vulgaris; [8]): 25 µg/mL | MIC (μg/mL) S. marcescens (Serratia marcescens; [9]): 12.5 µg/mL

PRT238 (DICDPNPCENGGICLPGLADGSFSCECPDGFTDPNCS; listed as Homo sapiens)
MIC (E. coli DH5α): 25 µg/mL | MIC (μg/mL) E. coli BL21 (E. coli BL21; 10 h cultivation at 37° C.): 12.5 µg/mL | MIC (μg/mL) P. aeruginosa (Pseudomonas aeruginosa; [1]): 25 µg/mL | MIC (μg/mL) K. pneumonia (Klebsiella pneumonia; [2]): 50 µg/mL | MIC (μg/mL) E. cloacae (Enterobacter cloacae; [3]): 25 µg/mL | MIC (μg/mL) A. hydrophila (Aeromonas hydrophila; [4]): 12.5 µg/mL | MIC (μg/mL) C. diversus (Citrobacter diversus; [5]): 25 µg/mL | MIC (μg/mL) M. catarrhalis (Moraxella catarrhalis; [6]): 12.5 µg/mL | MIC (μg/mL) P. mirabilis (Proteus mirabilis; [7]): 12.5 µg/mL | MIC (μg/mL) P. vulgaris (Proteus vulgaris; [8]): 25 µg/mL | MIC (μg/mL) S. marcescens (Serratia marcescens; [9]): 12.5 µg/mL

PRT1159 (TTDDQENECQHEAVCKDEINRPRCSCSLSYIGRLCV; listed as Homo sapiens)
MIC (E. coli DH5α): 12.5 µg/mL | MIC E. coli BL21 (E. coli BL21; 10 h cultivation at 37° C.): 50 µg/mL | MIC P. aeruginosa (Pseudomonas aeruginosa; 10 h cultivation at 37° C.): 12.5 µg/mL | MIC K. pneumonia (Klebsiella pneumonia; 10 h cultivation at 37° C.): 50 µg/mL | MIC E. cloacae (Enterobacter cloacae; 10 h cultivation at 37° C.): 12.5 µg/mL | MIC A. hydrophila (Aeromonas hydrophila; 10 h cultivation at 37° C.): 25 µg/mL | MIC C. diversus (Citrobacter diversus; 10 h cultivation at 37° C.): 50 µg/mL | MIC M. catarrhalis (Moraxella catarrhalis; 10 h cultivation at 37° C.): 25 µg/mL | MIC P. mirabilis (Proteus mirabilis; 10 h cultivation at 37° C.): 12.5 µg/mL | MIC P. vulgaris (Proteus vulgaris; 10 h cultivation at 37° C.): 25 µg/mL | MIC S. marcescens (Serratia marcescens; 10 h cultivation at 37° C.): 12.5 µg/mL

PRT114 (PKYGCNFNNGGCHQDCFEGGDGSFLCGCRPGFRLLDDLVTCA; listed as Homo sapiens)
MIC (E. coli DH5α): 12.5 µg/mL | MIC (μg/mL) E. coli BL21 (E. coli BL21; 96-well plate, 37° C., 10 h): 12.5 µg/mL | MIC (μg/mL) P. aeruginosa (Pseudomonas aeruginosa; Pseudomonas aeruginosa, 96-well plate, 37° C., 10 h): 12.5 µg/mL | MIC (μg/mL) K. pneumonia (Klebsiella pneumonia; Klebsiella pneumonia, 96-well plate, 37° C., 10 h): 25 µg/mL | MIC (μg/mL) E. cloacae (Enterobacter cloacae; Enterobacter cloacae, 96-well plate, 37° C., 10 h): 12.5 µg/mL | MIC (μg/mL) A. hydrophila (Aeromonas hydrophila; Aeromonas hydrophila, 96-well plate, 37° C., 10 h): 25 µg/mL | MIC (μg/mL) C. diversus (Citrobacter diversus; Citrobacter diversus, 96-well plate, 37° C., 10 h): 12.5 µg/mL | MIC (μg/mL) M. catarrhalis (Moraxella catarrhalis; Moraxella catarrhalis, 96-well plate, 37° C., 10 h): 12.5 µg/mL | MIC (μg/mL) P. mirabilis (Proteus mirabilis; Proteus mirabilis, 96-well plate, 37° C., 10 h): 12.5 µg/mL | MIC (μg/mL) P. vulgaris (Proteus vulgaris; Proteus vulgaris, 96-well plate, 37° C., 10 h): 12.5 µg/mL | MIC (μg/mL) S. marcescens (Serratia marcescens; Serratia marcescens, 96-well plate, 37° C., 10 h): 12.5 µg/mL

PRT938 (DIDDCLANPCQNGGSCMDGVNTFSCLCLPGFTGDKCQ; listed as Homo sapiens)
MIC (E. coli DH5α): 12.5 µg/mL | MIC (E. coli BL21; 10 h cultivation at 37° C.): 50 µg/mL | MIC (Pseudomonas aeruginosa; [1]): 25 µg/mL | MIC (Klebsiella pneumonia; [2]): 12.5 µg/mL | MIC (Enterobacter cloacae; [3]): 25 µg/mL | MIC (Aeromonas hydrophila; [4]): 50 µg/mL | MIC (Citrobacter diversus; [5]): 12.5 µg/mL | MIC (Moraxella catarrhalis; [6]): 50 µg/mL | MIC (Proteus mirabilis; [7]): 12.5 µg/mL | MIC (Proteus vulgaris; [8]): 50 µg/mL | MIC (Serratia marcescens; [9]): 12.5 µg/mL

PRT1122 (DVDECLSDPCLHGGTCSDTVAGYICRCPETWGGRDCS; listed as Homo sapiens)
MIC (E. coli DH5α): 50 µg/mL | MIC E. coli BL21 (E. coli BL21; 10 h cultivation at 37° C.): 12.5 µg/mL | MIC P. aeruginosa (Pseudomonas aeruginosa; 10 h cultivation at 37° C.): 50 µg/mL | MIC K. pneumonia (Klebsiella pneumonia; 10 h cultivation at 37° C.): 12.5 µg/mL | MIC E. cloacae (Enterobacter cloacae; 10 h cultivation at 37° C.): 50 µg/mL | MIC A. hydrophila (Aeromonas hydrophila; 10 h cultivation at 37° C.): 25 µg/mL | MIC C. diversus (Citrobacter diversus; 10 h cultivation at 37° C.): 12.5 µg/mL | MIC M. catarrhalis (Moraxella catarrhalis; 10 h cultivation at 37° C.): 50 µg/mL | MIC P. mirabilis (Proteus mirabilis; 10 h cultivation at 37° C.): 12.5 µg/mL | MIC P. vulgaris (Proteus vulgaris; 10 h cultivation at 37° C.): 50 µg/mL | MIC S. marcescens (Serratia marcescens; 10 h cultivation at 37° C.): 12.5 µg/mL

PRT961 (DVDECASTPCRNGAKCVDQPDGYECRCAEGFEGTLCD; listed as Homo sapiens)
MIC (E. coli DH5α): 12.5 µg/mL | MIC (E. coli BL21; 10 h cultivation at 37° C.): 25 µg/mL | MIC (Pseudomonas aeruginosa; [1]): 100 µg/mL | MIC (Klebsiella pneumonia; [2]): 25 µg/mL | MIC (Enterobacter cloacae; [3]): 12.5 µg/mL | MIC (Aeromonas hydrophila; [4]): 12.5 µg/mL | MIC (Citrobacter diversus; [5]): 25 µg/mL | MIC (Moraxella catarrhalis; [6]): 25 µg/mL | MIC (Proteus mirabilis; [7]): 50 µg/mL | MIC (Proteus vulgaris; [8]): 12.5 µg/mL | MIC (Serratia marcescens; [9]): 25 µg/mL
